Values of other authors, collected in patent US20230095832A1, “ADHESION BARRIER COMPOSITION, METHODS OF FABRICATION AND USE THEREOF” (SPOROGENICS PTE. LTD., priority 2020, published 2023).

Test system: intra-abdominal adhesions

SMILES: O=C(O)c1cc(O)c(O)c(O)c1 [gallic acid]
- IL-6, TNF-α, TGF-b1 serum levels and NF-kB phosphorylation (further studies): significantly reduced
- intra-abdominal adhesions (rats, compared to a control): decrease intra-abdominal adhesions
